Experimental data as given in publication PMC10935503 (Acta Pharmaceutica Sinica. B, 2023).
Values after ≈ are worked out from the molar mass of the structure shown.

Legend:
CYP2C19 = CYP2C19 (Homo sapiens, UniProt P33261); test: Cytochrome P450 inhibition assay, CYP2C19; format: in vitro ADME
CYP1A2 = target: T1, CYP1A2 (Homo sapiens, UniProt P05177); test: Cytochrome P450 inhibition assay, CYP1A2
T1 sequence (P05177 1-516): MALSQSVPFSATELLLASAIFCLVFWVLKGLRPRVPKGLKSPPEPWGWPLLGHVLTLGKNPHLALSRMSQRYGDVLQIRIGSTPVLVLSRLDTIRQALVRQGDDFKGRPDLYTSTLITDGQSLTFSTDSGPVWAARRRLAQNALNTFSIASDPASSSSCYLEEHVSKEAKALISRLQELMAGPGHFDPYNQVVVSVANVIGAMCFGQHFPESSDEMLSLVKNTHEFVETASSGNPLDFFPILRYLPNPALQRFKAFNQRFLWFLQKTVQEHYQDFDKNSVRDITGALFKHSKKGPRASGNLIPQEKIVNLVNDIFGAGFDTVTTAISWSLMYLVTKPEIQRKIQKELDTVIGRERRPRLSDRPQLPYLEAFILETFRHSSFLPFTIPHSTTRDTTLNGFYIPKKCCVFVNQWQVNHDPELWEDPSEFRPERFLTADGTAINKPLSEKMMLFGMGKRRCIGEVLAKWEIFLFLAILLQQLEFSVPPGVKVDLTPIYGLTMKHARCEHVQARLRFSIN

CYP2C9 = CYP2C9 (Homo sapiens, UniProt P11712); test: Cytochrome P450 inhibition assay, CYP2C9; format: in vitro ADME
[1] = test system: main CYP enzymes (CYP1A2, CYP2C9, CYP2C19, CYP2D6, CYP3A4; range over isoforms); test: Cytochrome P450 inhibition assay, summary over isoforms; format: in vitro ADME; conditions: human, human liver microsomes
[2] = Cytotoxicity in mock-infected MT-4 cells, MTT method; format: cell-based; conditions: human
HIV-1 K103N = test: microbe, parasite or virus in culture; format: cell-based
HIV-1 Y181C = test: microbe, parasite or virus in culture; format: cell-based
HIV-1 Y188L = test: microbe, parasite or virus in culture; format: cell-based
CYP3A4 = CYP3A4 (Homo sapiens, UniProt P08684); test: Cytochrome P450 inhibition assay, CYP3A4
[3] = In vivo pharmacokinetics in SD rats; parameters: species or system Sprague–Dawley (SD) rats
CYP2D6 = CYP2D6 (Homo sapiens, UniProt P10635); test: biochemical
HIV-1 RT = HIV-1 RT (Human immunodeficiency virus type 1 group M subtype B, UniProt P03366); test: HIV-1 RT inhibition assay; format: biochemical
HIV-1 WT strain (IIIB) = test: Anti-HIV-1 activity in MT-4 cells, MTT method, WT strain IIIB; format: cell-based; conditions: Human immunodeficiency virus 1, IIIB, MT4, read-out: EC50 IIIB
[4] = test system: HIV-1 K103N + Y181C (RES056); test: microbe, parasite or virus in culture; format: cell-based
HIV-1 L100I = test: microbe, parasite or virus in culture; format: cell-based
hERG channel = hERG channel (Homo sapiens, UniProt Q12809); test: hERG channel inhibition assay, manual patch-clamp in HEK293 cells; format: cell-based; conditions: HEK293 cells stably transfected with hERG cDNA
HIV-1 E138K = test: microbe, parasite or virus in culture; format: cell-based
[5] = Single-dose acute toxicity in mice; format: in vivo; conditions: Kunming mice, single intragastric dose 2000 mg/kg, 7 days observation
HIV-1 F227L + V106A = test: microbe, parasite or virus in culture; format: cell-based
[6] = resistance fold, EC50 (mutant strain)/EC50 (WT strain)
[7] = selectivity index, ratio of CC50/EC50
[8] = Sprague-Dawley, rat, plasma, iv, 2 mg/kg
[9] = Sprague-Dawley, rat, plasma, po, 20 mg/kg

Sequence of CYP2C19 (P33261 whole entry): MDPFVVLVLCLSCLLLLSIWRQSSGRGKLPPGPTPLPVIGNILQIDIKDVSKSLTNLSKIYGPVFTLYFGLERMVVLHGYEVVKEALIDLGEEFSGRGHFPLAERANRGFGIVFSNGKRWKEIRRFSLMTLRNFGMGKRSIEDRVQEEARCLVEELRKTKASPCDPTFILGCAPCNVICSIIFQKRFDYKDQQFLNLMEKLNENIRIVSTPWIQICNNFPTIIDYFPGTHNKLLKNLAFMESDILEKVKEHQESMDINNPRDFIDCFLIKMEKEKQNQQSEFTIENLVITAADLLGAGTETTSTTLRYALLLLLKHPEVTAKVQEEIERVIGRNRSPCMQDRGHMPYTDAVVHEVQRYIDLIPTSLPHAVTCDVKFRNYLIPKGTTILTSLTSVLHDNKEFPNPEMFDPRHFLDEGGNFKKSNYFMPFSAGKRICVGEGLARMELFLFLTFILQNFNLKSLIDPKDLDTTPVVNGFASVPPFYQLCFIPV
Sequence of hERG channel (Q12809 whole entry): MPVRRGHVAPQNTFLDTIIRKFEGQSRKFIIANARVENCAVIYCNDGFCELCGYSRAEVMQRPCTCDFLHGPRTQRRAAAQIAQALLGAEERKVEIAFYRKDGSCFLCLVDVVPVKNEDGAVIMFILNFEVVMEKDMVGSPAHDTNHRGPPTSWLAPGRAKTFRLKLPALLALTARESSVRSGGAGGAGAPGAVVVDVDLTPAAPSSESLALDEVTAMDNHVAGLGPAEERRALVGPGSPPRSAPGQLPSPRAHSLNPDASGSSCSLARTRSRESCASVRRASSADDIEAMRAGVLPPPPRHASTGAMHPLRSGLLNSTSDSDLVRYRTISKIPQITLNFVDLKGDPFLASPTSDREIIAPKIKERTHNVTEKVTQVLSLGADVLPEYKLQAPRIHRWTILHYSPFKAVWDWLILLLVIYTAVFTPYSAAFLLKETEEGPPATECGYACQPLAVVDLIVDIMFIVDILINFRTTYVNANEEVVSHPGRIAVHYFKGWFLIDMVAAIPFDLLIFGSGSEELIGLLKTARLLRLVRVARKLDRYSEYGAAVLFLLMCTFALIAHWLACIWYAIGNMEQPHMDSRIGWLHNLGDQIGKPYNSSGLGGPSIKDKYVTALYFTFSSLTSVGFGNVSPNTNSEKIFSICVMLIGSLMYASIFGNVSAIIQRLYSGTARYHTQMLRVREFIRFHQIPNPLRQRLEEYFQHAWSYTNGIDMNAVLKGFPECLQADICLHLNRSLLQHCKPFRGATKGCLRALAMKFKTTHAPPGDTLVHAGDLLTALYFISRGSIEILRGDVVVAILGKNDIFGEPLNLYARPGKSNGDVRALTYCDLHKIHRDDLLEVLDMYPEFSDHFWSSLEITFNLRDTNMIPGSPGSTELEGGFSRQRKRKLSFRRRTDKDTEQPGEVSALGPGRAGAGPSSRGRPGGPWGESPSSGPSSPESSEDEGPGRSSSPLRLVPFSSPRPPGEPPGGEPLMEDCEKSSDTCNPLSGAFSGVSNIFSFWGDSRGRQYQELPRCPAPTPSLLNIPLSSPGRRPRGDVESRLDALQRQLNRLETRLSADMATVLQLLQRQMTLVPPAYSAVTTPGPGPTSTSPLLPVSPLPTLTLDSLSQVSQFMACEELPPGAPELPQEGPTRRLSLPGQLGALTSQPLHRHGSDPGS
Sequence of CYP3A4 (P08684 whole entry): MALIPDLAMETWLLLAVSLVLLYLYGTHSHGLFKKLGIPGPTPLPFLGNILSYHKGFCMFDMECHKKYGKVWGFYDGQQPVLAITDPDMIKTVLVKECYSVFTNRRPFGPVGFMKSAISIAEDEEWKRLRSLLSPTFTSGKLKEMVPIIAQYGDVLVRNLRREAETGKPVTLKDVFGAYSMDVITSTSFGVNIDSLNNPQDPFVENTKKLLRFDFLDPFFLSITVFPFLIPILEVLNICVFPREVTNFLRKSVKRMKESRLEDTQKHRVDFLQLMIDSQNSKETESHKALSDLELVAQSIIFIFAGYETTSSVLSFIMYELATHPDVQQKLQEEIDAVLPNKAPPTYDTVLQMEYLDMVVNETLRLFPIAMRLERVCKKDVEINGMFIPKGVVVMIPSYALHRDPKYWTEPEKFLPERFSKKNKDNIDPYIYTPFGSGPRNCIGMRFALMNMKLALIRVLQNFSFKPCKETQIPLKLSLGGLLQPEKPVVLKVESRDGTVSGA
Sequence of CYP2C9 (P11712 whole entry, canonical isoform): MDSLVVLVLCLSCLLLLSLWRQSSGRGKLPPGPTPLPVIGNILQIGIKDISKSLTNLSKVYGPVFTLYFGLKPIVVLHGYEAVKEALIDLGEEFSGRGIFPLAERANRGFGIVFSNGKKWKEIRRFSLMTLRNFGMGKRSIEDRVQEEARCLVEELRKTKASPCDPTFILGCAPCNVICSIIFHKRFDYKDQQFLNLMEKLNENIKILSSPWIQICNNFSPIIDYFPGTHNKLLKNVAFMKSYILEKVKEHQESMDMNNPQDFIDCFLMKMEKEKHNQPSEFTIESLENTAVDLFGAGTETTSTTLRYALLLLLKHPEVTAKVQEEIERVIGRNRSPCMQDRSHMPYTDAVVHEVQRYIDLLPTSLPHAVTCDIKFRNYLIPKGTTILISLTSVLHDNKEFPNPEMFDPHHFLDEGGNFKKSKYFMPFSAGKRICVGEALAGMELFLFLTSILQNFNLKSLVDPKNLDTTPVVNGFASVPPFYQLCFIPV
Sequence of CYP2D6 (P10635 whole entry): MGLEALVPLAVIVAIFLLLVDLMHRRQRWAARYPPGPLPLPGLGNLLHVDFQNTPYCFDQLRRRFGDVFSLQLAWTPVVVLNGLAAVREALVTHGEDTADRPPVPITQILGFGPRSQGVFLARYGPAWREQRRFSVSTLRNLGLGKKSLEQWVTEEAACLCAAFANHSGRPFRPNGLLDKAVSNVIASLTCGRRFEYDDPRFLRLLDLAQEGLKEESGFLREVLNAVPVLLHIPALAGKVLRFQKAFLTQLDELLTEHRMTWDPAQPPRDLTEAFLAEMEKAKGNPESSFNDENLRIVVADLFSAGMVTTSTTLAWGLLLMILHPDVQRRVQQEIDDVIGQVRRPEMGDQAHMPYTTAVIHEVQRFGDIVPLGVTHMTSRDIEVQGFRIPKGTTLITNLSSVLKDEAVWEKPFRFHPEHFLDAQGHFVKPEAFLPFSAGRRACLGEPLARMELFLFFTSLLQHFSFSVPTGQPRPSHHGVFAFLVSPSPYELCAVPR

Compound: Cc1cc(/C=C/C#N)cc(C)c1Oc1nc(NC2CCN(Cc3ccc(S(N)(=O)=O)cc3)CC2)nc2c1SCCC2 [compound 23h, (E)-4-((4-((4-(4-(2-Cyanovinyl)-2,6-dimethylphenoxy)-7,8-dihydro-6H-thiopyrano[3,2-d]pyrimidin-2-yl)amino)piperidin-1-yl)methyl)benzenesulfonamide]
- IC50 (CYP2C19): 15600 nM
- IC50 (CYP1A2): > 50000 nM
- IC50 (CYP2C9): 3410 nM
- IC50 at 10 min [1]: 3410 to 50000 nM
- CC50 at 5 days [2]: 3310 ± 1700 nM
- EC50 (HIV-1 K103N; Human immunodeficiency virus 1, MT4, read-out: EC50 K103N): 6.13 ± 0.12 nM
- RF K103N (HIV-1 K103N; [6]): 1.8
- SI K103N (HIV-1 K103N; [7]): 540
- solubility (physchem; pH 2, aqueous buffer): 161 µg/mL (≈ 273 µM)
- solubility (physchem; pH 7, aqueous buffer): 11.7 µg/mL (≈ 19.8 µM)
- solubility (physchem; pH 7.4, aqueous buffer): 3.04 µg/mL (≈ 5.15 µM)
- EC50 (HIV-1 Y181C; Human immunodeficiency virus 1, MT4, read-out: EC50 Y181C): 8.46 ± 1.17 nM
- Fold improvement in potency compared to ETR, Y181C (HIV-1 Y181C; ratio of EC50 values vs ETR): 1.7 fold
- RF Y181C (HIV-1 Y181C; [6]): 2.5
- SI Y181C (HIV-1 Y181C; [7]): 391
- EC50 (HIV-1 Y188L; Human immunodeficiency virus 1, MT4, read-out: EC50 Y188L): 16.5 ± 5.18 nM
- RF Y188L (HIV-1 Y188L; [6]): 4.8
- SI Y188L (HIV-1 Y188L; [7]): 201
- IC50 (CYP3A4): 13500 nM
- V (iv) ([3]; SD rats, iv 2 mg/kg, mean ± SD, n = 3, 2 mg/kg): 49.7 L/kg
- AUC(0-inf) [3, 8]: 1210 ± 78.9 ng·h/mL
- AUC(0-t) [3, 8]: 1150 ± 69.7 ng·h/mL
- MRT inf [3, 8]: 2.03 ± 0.41 h
- MRT last [3, 8]: 1.56 ± 0.17 h
- clearance [3, 8]: 277 mL/min/kg
- half-life [3, 8]: 2.09 ± 0.39 h
- bioavailability ([3]; Sprague-Dawley, rat, plasma, oral, 20 mg/kg): 15.3%
- AUC(0-inf) [3, 9]: 1860 ± 1680 ng·h/mL
- AUC(0-t) [3, 9]: 1680 ± 1480 ng·h/mL
- Cmax [3, 9]: 333 ± 276 ng/mL
- MRT inf [3, 9]: 5.02 ± 0.48 h
- MRT last [3, 9]: 4.1 ± 0.12 h
- Tmax [3, 9]: 1.5 ± 0.87 h
- half-life [3, 9]: 3 ± 0.74 h
- IC50 (CYP2D6): 36800 nM
- IC50 (HIV-1 RT): 529 ± 142 nM
- EC50 (HIV-1 WT strain (IIIB)): 3.43 ± 2 nM
- EC50 ([4]; Human immunodeficiency virus 1, MT4, read-out: EC50 RES056): 15.2 ± 9.44 nM
- Fold greater potency than EFV, RES056 ([4]; ratio of EC50 values vs EFV): 7.5 fold
- Fold greater potency than ETR, RES056 ([4]; ratio of EC50 values vs ETR): 2.3 fold
- RF RES056 [4, 6]: 4.4
- SI RES056 [4, 7]: 218
- EC50 (HIV-1 L100I; Human immunodeficiency virus 1, MT4, read-out: EC50 L100I): 4.46 ± 0.36 nM
- Times greater activity than ETR, L100I (HIV-1 L100I; ratio of EC50 values vs ETR): 2.0 times
- RF L100I (HIV-1 L100I; [6]): 1.3
- SI L100I (HIV-1 L100I; [7]): 742
- IC50 (hERG channel): 79 nM
- EC50 (HIV-1 E138K; Human immunodeficiency virus 1, MT4, read-out: EC50 E138K): 21.4 ± 4.19 nM
- RF E138K (HIV-1 E138K; [6]): 6.2
- SI E138K (HIV-1 E138K; [7]): 155
- Death or signs of intoxication [5]: no death or signs of intoxication
- EC50 (HIV-1 F227L + V106A; Human immunodeficiency virus 1, MT4, read-out: EC50 F227L + V106A): 5.35 ± 0.69 nM
- Fold better than EFV, F227L + V106A (HIV-1 F227L + V106A; ratio of EC50 values vs EFV): 14.5 fold
- Fold better than RPV, F227L + V106A (HIV-1 F227L + V106A; ratio of EC50 values vs RPV): 15.3 fold
- RF F227L + V106A (HIV-1 F227L + V106A; [6]): 1.6
- SI F227L + V106A (HIV-1 F227L + V106A; [7]): 619
